From US20210322545A1 (priority 2016, published 2021) come the findings set out here.

The subject of one data set is EMT6, 4T1 or CT-2A cells. The conditions noted are these: mouse, in vivo.
The subject of data set [1] is intracranial GL261 tumors. The conditions noted are these: mouse, in vivo.
A further data set deals with MM cells. The format is cell-based.
The next data set deals with serum cytokines. To be noted: mouse, in vivo.
The subject of a further data set is HT-29 tumors. The conditions noted are these: mouse, in vivo.
The next data set relates to EMT6 mammary tumors. The format is in vivo, mouse.
In another data set the test system is CD8 T-cells. The format is cell-based, mouse.
Data set [2] deals with SNB75 cells. The format is cell-based, human.
The subject of another data set is glioma cells. The format is cell-based.
Data set [3] deals with U266, MM1R and MM1S cells.
The test system of another data set is CT-26 tumors. To be noted: mouse, in vivo, sc.
Data set [4] has as its system EMT6 cells. The data set can be described thus: cells. Type of data set: cell-based. To be noted: Mus musculus, EMT6, read-out: EC50 of SMC therapy.
The subject of another data set is cancer cells. The format is cell-based.
The subject of the next data set is VSVΔ51. The format is cell-based.
For a further data set, the system named is glioblastoma cells. The format is cell-based.
Data set [5] has as its system intracranial CT-2A tumors. The conditions noted are these: mouse, in vivo.
The conditions of data set [6]: mouse, in vivo.
For the next data set, the system named is MPC-11 Fluc cells. The conditions noted are these: mouse, in vivo.
Data set [7] deals with intracranial CT-2A tumors. The conditions noted are these: mouse, in vivo. This is another data set of the same source.
In data set [8] the test system is SNB75 cells. The data set can be described thus: cells. The format is cell-based. To be noted: Homo sapiens, SNB-75, read-out: EC50 of SMC therapy.
The test system of data set [9] is U266, MM1R and MM1S cells. The format is cell-based, human.
The subject of data set [10] is EMT6 cells. Type of data set: cell-based, mouse.
The next data set deals with TNF-α. To be noted: mouse, in vivo, ip.
For data set [11], the system named is CT-2A and K1580 glioblastoma cells. The format is cell-based, mouse.
Setting [12] is: EMT6 tumors, 50 mg/kg LCL161 oral gavage.

“And” between values parts separate entries of the source, which are not always exact repeats. Equal entries are not always repeated. “Also recorded” adds a separate entry of the source. Where two headings read alike, the source gives them in different places.

Source text for cIAP1/2 and XIAP: Cells were scraped, collected by centrifugation and lysed in RIPA lysis buffer containing a protease inhibitor cocktail (Roche, Laval, Canada). Equal amounts of soluble protein were separated on polyacrylamide gels followed by transfer to nitrocellulose membranes. […] Our rabbit anti-rat IAP1 and IAP3 polyclonal antibodies were used to detect human and mouse cIAP1/2 and XIAP, respectively. AlexaFluor680 (Invitrogen) or IRDye800 (Li-Cor, Lincoln, USA) were used to detect the primary antibodies, and infrared fluorescent signals were detected using the Odyssey Infrared Imaging System (Li-Cor).
Cells were scraped, collected by centrifugation, and lysed in RIPA lysis buffer containing a protease inhibitor cocktail (Roche). Tumors were excised, minced, and lysed as above. Equal amounts of soluble protein were separated on polyacrylamide gels followed by transfer to nitrocellulose membranes. […] Rabbit anti-rat IAP1 and IAP3 polyclonal antibodies were used to detect human and mouse cIAP1/2 and XIAP, respectively (1:5000; Cyclex Co.). AlexaFluor680 (Invitrogen) or IRDye800 (Li-Cor) (1:2500) were used to detect the primary antibodies, and infrared fluorescent signals were detected using the Odyssey Infrared Imaging System (Li-Cor).
Procedure for serum cytokines: The detection of serum proteins following combinatorial SMC and anti-PD-1 treatment was analyzed by a flow cytometry-based multiplex kit (LEGENDplex inflammation panel from Biolegend).

One may read the EC50 as the concentration that produces a half-maximal response. Take `CN[C@@H](C)C(=O)N[C@H](C(=O)N1CCC[C@H]1c1nc(C(=O)c2ccc(F)cc2)cs1)C1CCCCC1` [LCL161]: the “tumor engraftment on rechallenge of cured mice” value with EMT6, 4T1 or CT-2A cells is on record as “completely resistant to tumor engraftment”. The same compound yielded a durable cure rate in data set [1] of 33%. In addition, the “cIAP1 and cIAP2 protein” value in the data set with MM cells is “rapid degradation of cIAP1 and cIAP2”. Besides, the “serum IFN-, IL-1-α, IL-1β, IL-17, IFN-γ, IL-27, GM-CSF” value in the data set on serum cytokines is reported as “statistically significant increases”. In addition, in the data set on HT-29 tumors, the “effect on HT-29 tumors, monotherapy” value was “neither monotherapy had any effect”. Further, the “tumor response, oral SMC + BCG” value in the data set on EMT6 mammary tumors (BCG intratumorally or intraperitoneally) is on record as “significant tumor regression”. Moreover, in the data set with EMT6 mammary tumors (mouse, in vivo), the durable cure rate was 75%; the “durable cures of treated mice” value is recorded as 88%; the “tumor growth and survival, single agent” value was “a decrease in the rate of tumor growth and a modest extension in survival; also recorded: slightly delayed EMT6 tumor growth rates and slightly extended the survival”. In addition, in the data set on EMT6 mammary tumors (mouse, in vivo, ip), the cure rate is reported as 57% and the “durable cures of treated mice” value is recorded as 60%. Moreover, the “CD8+ T-cells expressing TNF-α” value in the data set with CD8 T-cells is listed as “significantly increased the proportion of CD8+ T-cells expressing TNF-α”. Besides, in the data set with SNB75 cells [2], the “effect of SMC on induction of TRAIL and TNFα by IFNβ” value is given as “potentiated the induction”. The “surface expression of PD-L1 and MHC I markers” value with glioma cells is given as “no significant impact”. In [3], the PD-L1 expression entry is given as “Comparable upregulation”. Besides, the “tumor growth and survival, single agent” value in the data set on CT-26 tumors is “modest decrease of the tumor growth rate and a slight extension of survival”. Moreover, the EC50 in the data set on EMT6 cells [4] was greater than 2500 nM. Further, the “cell death by UV-inactivated conditioned media of VSVΔ51-infected cells” value with cancer cells is “induced cell death only when the cells were co-treated with an SMC”. For the same compound, the “effect of SMC treatment on growth kinetics of VSVΔ51” value in the data set with VSVΔ51 is given as “does not affect the growth kinetics”. For the same compound, in the data set on cIAP1/2 and XIAP (setting [12]), the “duration of cIAP1/2 knockdown in tumors” value is “at least 24 hrs” and the “duration of cIAP1/2 knockdown in tumors, in some cases (up to)” value fell in the range of 48 to 72 h. In addition, the “IAP levels in intracranial CT-2A tumors” value in the data set on cIAP1/2 and XIAP (direct intracranial injection, 10 μL of a 100 μM solution) was “potent down-regulation of both cIAP1/2 and XIAP proteins”. The “IAP levels in intracranial CT-2A tumors” value in the data set on cIAP1/2 and XIAP (systemic SMC, several hours after drug administration, indicative of crossing the BBB) is “degradation of cIAP1/2 proteins”. Moreover, in the data set on glioblastoma cells, the “death of cultured and primary glioblastoma cell lines” value is given as “killed”; the “sensitivity of CT-2A cells to combined SMC and recombinant IFN-α” value is “partially sensitive”. Besides, in data set [5], the “CD4+ and CD25+ T-cells (Treg) in tumors” value is “significant decrease”; the “CD4+ cells expressing IFN-γ” value is “decrease in the proportion of CD4+ cells expressing IFN-γ”; the “CD8+ T-cells expressing PD-1 in tumors” value is listed as “significant increase in CD8+ T-cells expressing PD-1”. In [5] (po, 75 mg/kg), the “CD3+ and CD3+ CD8+ cells expressing PD-1” value was “robust increase”. Moreover, in [6], the tolerability result was “well tolerated” and the “tolerability of combination therapies” value is given as “well tolerated”. Besides, the “body weight after a single treatment” value in data set [6] (po, 50 mg/kg) is listed as “minimal transient weight loss”. Besides, in the data set with MPC-11 Fluc cells, the “tolerability, combination treatment” value is recorded as “not well tolerated”; the “tumour burden (luminescence signal)” value is listed as “almost no tumour burden”; the “tumour burden, combination treatment” value is “did not reduce tumour burden as effectively as VSVΔ51 alone”. In data set [7], the cure rate was 50%; the “cure rate upon depletion of CD4+ T-cells” value was determined as 100%; the “cure rate upon depletion of CD8+ T-cells” value was “completely abrogated”; the durable cures is 86% and 55%. For the same compound, in data set [7], the “effect of IFNAR1 blocking antibody on SMC + anti-PD1 survival synergy” value is given as “negated the synergistic effects”, the “effect of anti-IFN-γ antibody on SMC + ICI synergy” value is on record as “partially inhibited the synergistic effects”, the “effect of systemic TNF-α blockade on SMC + ICI efficacy” value is listed as “almost a complete reversal of the efficacy” and the neurotoxicity entry is recorded as “did not result in any overt neurotoxicity”. In addition, the “physical or behavioral defects in long-term survivors” value (“physical or behavioral defects” below) in [7] was “no overt physical or behavioral defects”. In data set [7] (po), the expected survival rate came out at 86%. Further, in the data set with SNB75 cells [8], the EC50 is greater than 2500 nM.
On to IFNα, for which the “killing of MM cells with SMC” value in data set [9] is recorded as “very strong synergistic killing”. Besides, the “tumor growth and survival, single agent” value in the data set with EMT6 mammary tumors (mouse, in vivo) is recorded as “no effect on EMT6 tumor growth or overall survival”. In data set [7], the neurotoxicity entry is recorded as “did not result in any overt neurotoxicity” and the “physical or behavioral defects” value was “no overt physical or behavioral defects”.
Take `CC[C@H](NC(=O)[C@H](C)NC)C(=O)N1C[C@@H](O)C[C@H]1Cc1c(-c2[nH]c3cc(F)ccc3c2C[C@@H]2C[C@H](O)CN2C(=O)[C@H](CC)NC(=O)[C@H](C)NC)[nH]c2cc(F)ccc12` [Birinapant]: the survival entry in data set [7] (ip) was “significant increase in survival”.
As for `CC(C)Cn1cnc2c(N)nc3ccccc3c21` [imiquimod], in the data set on EMT6 cells [10], the “bystander death of SMC treated EMT6 cells” value was “required splenocytes”.
Take poly(I:C): the “tumor growth and survival, single agent” value with EMT6 mammary tumors (mouse, in vivo) is given as “no bearing on tumor growth”. For the same compound, in the data set on TNF-α, the “TNFα levels from the brain” value was “marked up-regulation”. Further, the “bystander death of SMC treated EMT6 cells” value in the data set on EMT6 cells [10] is given as “led to EMT6 cell death directly”. Also, the “toxicity of intracranial administration” value in data set [6] is “without overt toxicities”. Also, in data set [7], the “physical or behavioral defects” value is “no overt physical or behavioral defects”. Besides, the “cell death by brain lysates of treated mice in the presence of SMCs” value in data set [11] is “enhanced cell death”.
